Assays:
[1] = test system: kidney of C57BL/6J male mice; conditions: mouse, in vivo
Method: The obtained dosing solutions were administered into the tail vein of 6-week-old C57BL/6J male mice (N=5) at 20 mL/kg. Next day, the mice were subjected to autopsy, and formalin-fixed paraffin-embedded samples of the respective kidneys were prepared. Sections obtained by slicing the samples were subjected to hematoxylin-eosin staining and a histopathological test of the sections was performed.

C57BL/6J male mice [2] = test: BUN and Cre values in serum after tail-vein administration of PMO dosing solutions with or without sucrose (Example 2); conditions: Example 2, PMO Nos. 8 and 9 with sucrose
Method: (§1) The obtained dosing solutions were administered into the tail vein of 6-week-old C57BL/6J male mice (N=3) at 10 and 12 mL/kg. Next day, serum was collected from the mice, and the blood urea nitrogen (BUN) values and blood creatinine (Cre) values were measured with the urease-GIDH method and the enzymatic method, respectively, using an automatic biochemical analyzer JCA-BM8060 (manufactured by JEOL Ltd.). […] Sections obtained by slicing the samples were subjected to hematoxylin-eosin staining and a histopathological test of the sections was performed.

C57BL/6J male mice [3] = test: BUN and Cre values in serum after tail-vein administration of PMO dosing solutions with or without sucrose or trehalose (Example 5); conditions: Example 5, PMO Nos. 1, 8 and 9 with sucrose or trehalose
Method: Also, the antisense oligomers of PMO Nos. 1, 8, and 9 were each dissolved in water for injection comprising 0.9% sodium chloride, and a solution obtained by dissolving trehalose (manufactured by FUJIFILM Wako Pure Chemical Corporation) with physiological saline was added thereto to prepare a dosing solution comprising each of the antisense oligomers and trehalose at the concentrations shown in Tables 15 to 17.
The obtained dosing solutions were administered into the tail vein of 6-week-old C57BL/6J male mice (N=2 to 3) at 20 mL/kg. Next day, serum was collected from the mice, and the blood urea nitrogen (BUN) values and blood creatinine (Cre) values were measured with the urease-GIDH method and the enzymatic method, respectively, using an automatic biochemical analyzer JCA-BM8060 (manufactured by JEOL Ltd.).

[4] = test system: kidney of C57BL/6J male mice; test: Histopathological test of kidney (hematoxylin-eosin) after PMO No. 8 with or without sucrose (Example 2); conditions: Example 2, histopathological test, PMO No. 8 with sucrose
Method: as §1

[5] = Precipitation suppressing effect of trehalose, absorbance at 620 nm in the presence of ions assumed to be in urine (Example 7); assay type: physicochemical; conditions: Example 7, PMO Nos. 1, 2, 7, 8; aqueous solution of trehalose versus water for injection; KCl and NaCl, 37° C.
Method: Each of the antisense oligomers was dissolved in water for injection or an aqueous solution of trehalose, and the mixture was then mixed with an aqueous solution comprising potassium chloride and sodium chloride assumed to be in urine. The absorbance at 620 nm of the solution thus mixed was measured using a plate reader, Infinite F200 Pro (manufactured by Tecan Group Ltd.) under the heating condition of 37° C. […] Accordingly, conditions were set under which the precipitation was observed using water for injection as a medium for each sequence. Another measurement was performed under the same conditions as obtained except that only the medium was changed to an aqueous solution of trehalose, and then the absorbance obtained under both the conditions was compared to each other. When the absorbance was increased, precipitation was determined to be observed, and a time until the precipitation was observed and the increased value of the absorbance were evaluated. When the aqueous solution of trehalose was used as the medium, it was determined that the precipitation suppressing effect was presented in a case where the time until the precipitation was observed was longer or in a case where the increased value of the absorbance was smaller than the case of using the water for injection as the medium.

Row | SMILES | Nephrotoxicity reducing effect (toxicological findings on the histopathological test of the kidney) [1] | Nephrotoxicity reducing effect (BUN values and Cre values versus control dosing solution comprising no sucrose) (C57BL/6J male mice [2]) | Nephrotoxicity reducing effect (BUN values and Cre values versus dosing solution comprising neither sucrose nor trehalose) (C57BL/6J male mice [3]) | Amount of precipitates (basophilic substances in the lumens of renal tubules) [4] | Precipitation suppressing effect (time until the precipitation was observed, increase of the absorbance at 620 nm) [5]
1 | OC[C@H]1O[C@@](CO)(O[C@H]2O[C@H](CO)[C@@H](O)[C@H](O)[C@H]2O)[C@@H](O)[C@@H]1O [sucrose] | confirmed to reduce nephrotoxicity | confirmed to reduce nephrotoxicity | confirmed to reduce nephrotoxicity | amount of precipitates decreased according to the concentrations of sucrose | 
2 | OC[C@H]1O[C@H](O[C@H]2O[C@H](CO)[C@@H](O)[C@H](O)[C@H]2O)[C@H](O)[C@@H](O)[C@@H]1O [trehalose] |  |  | confirmed to reduce nephrotoxicity |  | suppress the precipitation of antisense oligomers
